Measured values published in patent US20210283261A1, “Compositions and Methods for Treating ALK-Mediated Cancer” (ICAHN SCHOOL OF MEDICINE AT MOUNT SINAI, priority 2017, published 2021).

target: T1, ALK fusion protein (Homo sapiens, UniProt Q9UM73); experiment: Western blot of ALK fusion protein levels in NCI-H3122 cells; format: cell-based; details: NCI-H3122, NCI-H3122 cells, 500 nM, Western blot; read-out: ALK fusion protein degradation, NCI-H3122 (500 nM)
T1 construct: endogenous in cells; host or cells: NCI-H3122; the other entry of the earlier key: EML4 (Q9HC35, Echinoderm microtubule-associated protein-like 4)
T1 sequence (Q9UM73 with tags, fused parts or gaps): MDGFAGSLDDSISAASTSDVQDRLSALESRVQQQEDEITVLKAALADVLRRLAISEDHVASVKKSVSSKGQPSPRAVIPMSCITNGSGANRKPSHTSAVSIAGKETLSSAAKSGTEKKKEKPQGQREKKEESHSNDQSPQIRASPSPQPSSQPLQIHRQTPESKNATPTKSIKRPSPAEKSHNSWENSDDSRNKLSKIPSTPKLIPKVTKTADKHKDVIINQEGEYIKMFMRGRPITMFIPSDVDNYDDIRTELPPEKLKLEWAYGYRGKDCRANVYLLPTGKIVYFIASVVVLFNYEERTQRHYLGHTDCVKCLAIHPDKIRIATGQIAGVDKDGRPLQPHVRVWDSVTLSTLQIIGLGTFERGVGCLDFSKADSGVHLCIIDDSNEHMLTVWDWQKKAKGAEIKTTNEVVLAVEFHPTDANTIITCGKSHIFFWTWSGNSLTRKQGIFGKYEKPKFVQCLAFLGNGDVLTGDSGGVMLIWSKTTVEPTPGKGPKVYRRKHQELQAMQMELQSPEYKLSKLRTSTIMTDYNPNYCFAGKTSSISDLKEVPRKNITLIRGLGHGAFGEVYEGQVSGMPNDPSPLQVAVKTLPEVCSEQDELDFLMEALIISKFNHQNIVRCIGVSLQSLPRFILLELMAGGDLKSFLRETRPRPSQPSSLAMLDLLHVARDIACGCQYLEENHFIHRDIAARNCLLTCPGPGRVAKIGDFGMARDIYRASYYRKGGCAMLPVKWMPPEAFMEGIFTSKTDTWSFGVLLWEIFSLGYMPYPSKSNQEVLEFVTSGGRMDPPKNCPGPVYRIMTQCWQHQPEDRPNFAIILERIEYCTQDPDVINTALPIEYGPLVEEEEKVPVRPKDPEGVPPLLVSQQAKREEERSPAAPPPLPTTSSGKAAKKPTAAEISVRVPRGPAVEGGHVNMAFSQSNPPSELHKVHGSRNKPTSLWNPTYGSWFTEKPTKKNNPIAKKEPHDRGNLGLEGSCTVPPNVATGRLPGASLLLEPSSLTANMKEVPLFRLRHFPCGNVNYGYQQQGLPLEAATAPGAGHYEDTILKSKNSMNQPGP
Method: SU-DHL-1, NCI-H3122 and NCI-H2228 cells were cultured in RPMI-1640 medium supplemented with 10% fetal bovine serum, 50 μg/mL penicillin and streptomycin. Cells were cultured in a 37° C. incubator with 5% CO2.
Cells were washed with cold PBS once and lysed in 1× Laemmli loading buffer directly. Lysates were heated at 99° C. for […], and resolved on 4-15% precast SDS-PAGE (BIO-RAD) and transferred onto PVDF membrane. Membrane was blocked in 5% milk in Tris-buffered saline and Tween 20 (TBST) for 1 h at room temperature, followed by incubation with a primary antibody overnight at 4° C., and a horseradish peroxidase (HRP)-conjugated secondary antibody for 1 h at room temperature. The membrane was imaged by a ChemiDoc MP imaging system (BIO-RAD). Antibodies against GAPDH (abeam), Phospho-ALK (Tyr1507), ALK (Cell Signaling Technology), Tubulin (Santa Cruz) were purchased commercially. […]

Row | Dmax at 0.5 µM [%] | Compound
1 | < 20 | Cc1cc(Nc2ncc(Cl)c(Nc3ccccc3S(=O)(=O)C(C)C)n2)c(OC(C)C)cc1C1CCN(C(=O)CNc2cccc3c2C(=O)N(C2CCC(=O)NC2=O)C3=O)CC1 (stereo not shown) [CZ47-01, 4-((2-(4-(4-((5-Chloro-4-((2-(isopropylsulfonyl)phenyl)amino)pyrimidin-2-yl)amino)-5-isopropoxy-2-methylphenyl)piperidin-1-yl)-2-oxoethyl)amino)-2-(2,6-dioxopiperidin-3-yl)isoindoline-1,3-dione]
2 | 20 to 80 | Cc1cc(Nc2ncc(Cl)c(Nc3ccccc3S(=O)(=O)C(C)C)n2)c(OC(C)C)cc1C1CCN(C(=O)CCNc2cccc3c2C(=O)N(C2CCC(=O)NC2=O)C3=O)CC1 (stereo not shown) [CZ47-02, 4-((3-(4-(4-((5-Chloro-4-((2-(isopropylsulfonyl)phenyl)amino)pyrimidin-2-yl)amino)-5-isopropoxy-2-methylphenyl)piperidin-1-yl)-3-oxopropyl)amino)-2-(2,6-dioxopiperidin-3-yl)isoindoline-1,3-dione]
3 | 20 to 80 | Cc1cc(Nc2ncc(Cl)c(Nc3ccccc3S(=O)(=O)C(C)C)n2)c(OC(C)C)cc1C1CCN(C(=O)CCCNc2cccc3c2C(=O)N(C2CCC(=O)NC2=O)C3=O)CC1 (stereo not shown) [CZ47-03, 4-((4-(4-(4-((5-Chloro-4-((2-(isopropylsulfonyl)phenyl)amino)pyrimidin-2-yl)amino)-5-isopropoxy-2-methylphenyl)piperidin-1-yl)-4-oxobutyl)amino)-2-(2,6-dioxopiperidin-3-yl)isoindoline-1,3-dione]
4 | 20 to 80 | Cc1cc(Nc2ncc(Cl)c(Nc3ccccc3S(=O)(=O)C(C)C)n2)c(OC(C)C)cc1C1CCN(C(=O)CCCCNc2cccc3c2C(=O)N(C2CCC(=O)NC2=O)C3=O)CC1 (stereo not shown) [CZ47-04, 4-((5-(4-(4-((5-Chloro-4-((2-(isopropylsulfonyl)phenyl)amino)pyrimidin-2-yl)amino)-5-isopropoxy-2-methylphenyl)piperidin-1-yl)-5-oxopentyl)amino)-2-(2,6-dioxopiperidin-3-yl)isoindoline-1,3-dione]
5 | < 20 | Cc1cc(Nc2ncc(Cl)c(Nc3ccccc3S(=O)(=O)C(C)C)n2)c(OC(C)C)cc1C1CCN(C(=O)CCCCCNc2cccc3c2C(=O)N(C2CCC(=O)NC2=O)C3=O)CC1 (stereo not shown) [CZ47-05, 4-((6-(4-(4-((5-Chloro-4-((2-(isopropylsulfonyl)phenyl)amino)pyrimidin-2-yl)amino)-5-isopropoxy-2-methylphenyl)piperidin-1-yl)-6-oxohexyl)amino)-2-(2,6-dioxopiperidin-3-yl)isoindoline-1,3-dione]
6 | < 20 | Cc1cc(Nc2ncc(Cl)c(Nc3ccccc3S(=O)(=O)C(C)C)n2)c(OC(C)C)cc1C1CCN(C(=O)CCCCCCNc2cccc3c2C(=O)N(C2CCC(=O)NC2=O)C3=O)CC1 (stereo not shown) [CZ47-06, 4-((7-(4-(4-((5-Chloro-4-((2-(isopropylsulfonyl)phenyl)amino)pyrimidin-2-yl)amino)-5-isopropoxy-2-methylphenyl)piperidin-1-yl)-7-oxoheptyl)amino)-2-(2,6-dioxopiperidin-3-yl)isoindoline-1,3-dione]
7 | 20 to 80 | Cc1cc(Nc2ncc(Cl)c(Nc3ccccc3S(=O)(=O)C(C)C)n2)c(OC(C)C)cc1C1CCN(C(=O)CCCCCCCNc2cccc3c2C(=O)N(C2CCC(=O)NC2=O)C3=O)CC1 (stereo not shown) [CZ47-07, 4-((8-(4-(4-((5-Chloro-4-((2-(isopropylsulfonyl)phenyl)amino)pyrimidin-2-yl)amino)-5-isopropoxy-2-methylphenyl)piperidin-1-yl)-8-oxooctyl)amino)-2-(2,6-dioxopiperidin-3-yl)isoindoline-1,3-dione]
8 | > 80 | Cc1cc(Nc2ncc(Cl)c(Nc3ccccc3S(=O)(=O)C(C)C)n2)c(OC(C)C)cc1C1CCN(C(=O)CCOCCNc2cccc3c2C(=O)N(C2CCC(=O)NC2=O)C3=O)CC1 (stereo not shown) [CZ47-08, 4-((2-(3-(4-(4-((5-Chloro-4-((2-(isopropylsulfonyl)phenyl)amino)pyrimidin-2-yl)amino)-5-isopropoxy-2-methylphenyl)piperidin-1-yl)-3-oxopropoxy)ethyl)amino)-2-(2,6-dioxopiperidin-3-yl)isoindoline-1,3-dione]
9 | > 80 | Cc1cc(Nc2ncc(Cl)c(Nc3ccccc3S(=O)(=O)C(C)C)n2)c(OC(C)C)cc1C1CCN(C(=O)CCOCCOCCNc2cccc3c2C(=O)N(C2CCC(=O)NC2=O)C3=O)CC1 (stereo not shown) [CZ47-09, 4-((2-(2-(3-(4-(4-((5-Chloro-4-((2-(isopropylsulfonyl)phenyl)amino)pyrimidin-2-yl)amino)-5-isopropoxy-2-methylphenyl)piperidin-1-yl)-3-oxopropoxy)ethoxy)ethyl)amino)-2-(2,6-dioxopiperidin-3-yl)isoindoline-1,3-dione]
10 | < 20 | Cc1cc(Nc2ncc(Cl)c(Nc3ccccc3S(=O)(=O)C(C)C)n2)c(OC(C)C)cc1C1CCN(C(=O)CCOCCOCCOCCNc2cccc3c2C(=O)N(C2CCC(=O)NC2=O)C3=O)CC1 (stereo not shown) [CZ47-10, 4-((2-(2-(2-(3-(4-(4-((5-Chloro-4-((2-(isopropylsulfonyl)phenyl)amino)pyrimidin-2-yl)amino)-5-isopropoxy-2-methylphenyl)piperidin-1-yl)-3-oxopropoxy)ethoxy)ethoxy)ethyl)amino)-2-(2,6-dioxopiperidin-3-yl)isoindoline-1,3-dione]
11 | 20 to 80 | Cc1cc(Nc2ncc(Cl)c(Nc3ccccc3S(=O)(=O)C(C)C)n2)c(OC(C)C)cc1C1CCN(C(=O)CCOCCOCCOCCOCCNc2cccc3c2C(=O)N(C2CCC(=O)NC2=O)C3=O)CC1 (stereo not shown) [CZ47-11, 4-((15-(4-(4-((5-Chloro-4-((2-(isopropylsulfonyl)phenyl)amino)pyrimidin-2-yl)amino)-5-isopropoxy-2-methylphenyl)piperidin-1-yl)-15-oxo-3,6,9,12-tetraoxapentadecyl)amino)-2-(2,6-dioxopiperidin-3-yl)isoindoline-1,3-dione]
12 | 20 to 80 | Cc1cc(Nc2ncc(Cl)c(Nc3ccccc3S(=O)(=O)C(C)C)n2)c(OC(C)C)cc1C1CCN(C(=O)CCOCCOCCOCCOCCOCCNc2cccc3c2C(=O)N(C2CCC(=O)NC2=O)C3=O)CC1 (stereo not shown) [CZ47-12, 4-((18-(4-(4-((5-Chloro-4-((2-(isopropylsulfonyl)phenyl)amino)pyrimidin-2-yl)amino)-5-isopropoxy-2-methylphenyl)piperidin-1-yl)-18-oxo-3,6,9,12,15-pentaoxaoctadecyl)amino)-2-(2,6-dioxopiperidin-3-yl)isoindoline-1,3-dione]
13 | 20 to 80 | Cc1cc(Nc2ncc(Cl)c(Nc3ccccc3S(=O)(=O)C(C)C)n2)c(OC(C)C)cc1C1CCN(C(=O)COCC(=O)N[C@H](C(=O)N2C[C@H](O)C[C@H]2C(=O)NCc2ccc(-c3scnc3C)cc2)C(C)(C)C)CC1 [CZ47-13, (2S,4R)-1-((S)-2-(2-(2-(4-(4-((5-Chloro-4-((2-(isopropylsulfonyl)phenyl)amino)pyrimidin-2-yl)amino)-5-isopropoxy-2-methylphenyl)piperidin-1-yl)-2-oxoethoxy)acetamido)-3,3-dimethylbutanoyl)-4-hydroxy-N-(4-(4-methylthiazol-5-yl)benzyl)pyrrolidine-2-carboxamide]
14 | 20 to 80 | Cc1cc(Nc2ncc(Cl)c(Nc3ccccc3S(=O)(=O)C(C)C)n2)c(OC(C)C)cc1C1CCN(C(=O)CCOCCC(=O)N[C@H](C(=O)N2C[C@H](O)C[C@H]2C(=O)NCc2ccc(-c3scnc3C)cc2)C(C)(C)C)CC1 [CZ47-14, (2S,4R)-1-((S)-2-(3-(3-(4-(4-((5-Chloro-4-((2-(isopropylsulfonyl)phenyl)amino)pyrimidin-2-yl)amino)-5-isopropoxy-2-methylphenyl)piperidin-1-yl)-3-oxopropoxy)propanamido)-3,3-dimethylbutanoyl)-4-hydroxy-N-(4-(4-methylthiazol-5-yl)benzyl)pyrrolidine-2-carboxamide]
15 | < 20 | Cc1cc(Nc2ncc(Cl)c(Nc3ccccc3S(=O)(=O)C(C)C)n2)c(OC(C)C)cc1C1CCN(C(=O)CCOCCOCCC(=O)N[C@H](C(=O)N2C[C@H](O)C[C@H]2C(=O)NCc2ccc(-c3scnc3C)cc2)C(C)(C)C)CC1 [CZ47-16, (2S,4R)-1-((S)-2-(3-(2-(3-(4-(4-((5-Chloro-4-((2-(isopropylsulfonyl)phenyl)amino)pyrimidin-2-yl)amino)-5-isopropoxy-2-methylphenyl)piperidin-1-yl)-3-oxopropoxy)ethoxy)propanamido)-3,3-dimethylbutanoyl)-4-hydroxy-N-(4-(4-methylthiazol-5-yl)benzyl)pyrrolidine-2-carboxamide]
16 | < 20 | Cc1cc(Nc2ncc(Cl)c(Nc3ccccc3S(=O)(=O)C(C)C)n2)c(OC(C)C)cc1C1CCN(C(=O)COCCOCCOCC(=O)N[C@H](C(=O)N2C[C@H](O)C[C@H]2C(=O)NCc2ccc(-c3scnc3C)cc2)C(C)(C)C)CC1 [CZ47-17, (2S,4R)-1-((S)-2-(tert-Butyl)-14-(4-(4-((5-chloro-4-((2-(isopropylsulfonyl)phenyl)amino)pyrimidin-2-yl)amino)-5-isopropoxy-2-methylphenyl)piperidin-1-yl)-4,14-dioxo-6,9,12-trioxa-3-azatetradecanoyl)-4-hydroxy-N-(4-(4-methylthiazol-5-yl)benzyl)pyrrolidine-2-carboxamide]
